Target: T1, Non-receptor tyrosine-protein kinase TYK2 [556-888] (Homo sapiens, UniProt P29597)
T1 construct: 556-888
Experiment: TYK2 JH2 Domain Binding Assay
Method: Binding constants for the compounds described herein against the JH2 domain were determined by the following protocol for a KINOMEscan assay (DiscoveRx). A fusion protein of a partial length construct of human TYK2 (JH2domain-pseudokinase) (amino acids G556 to D888 based on reference sequence NP_003322.3) and the DNA binding domain of NFkB was expressed in transiently transfected HEK293 cells. From these HEK 293 cells, extracts were prepared in M-PER extraction buffer (Pierce) in the presence of Protease Inhibitor Cocktail Complete (Roche) and Phosphatase Inhibitor Cocktail Set II (Merck) per manufacturers' instructions. The TYK2 (JH2domain-pseudokinase) fusion protein was labeled with a chimeric double-stranded DNA tag containing the NFkB binding site fused to an amplicon for qPCR readout, which was added directly to the expression extract (the final concentration of DNA-tag in the binding reaction is 0.1 nM).

T1 sequence (P29597 556-888): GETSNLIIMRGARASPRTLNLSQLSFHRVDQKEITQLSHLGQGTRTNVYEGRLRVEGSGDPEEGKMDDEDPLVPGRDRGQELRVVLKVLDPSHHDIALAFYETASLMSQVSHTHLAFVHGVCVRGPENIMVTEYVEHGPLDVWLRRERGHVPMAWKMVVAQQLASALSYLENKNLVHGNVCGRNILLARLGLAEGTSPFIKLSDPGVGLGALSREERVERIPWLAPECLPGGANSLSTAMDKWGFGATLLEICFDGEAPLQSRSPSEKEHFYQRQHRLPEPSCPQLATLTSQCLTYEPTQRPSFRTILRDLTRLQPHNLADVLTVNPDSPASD

In the case of CNc1cc2nn3c(cnc13)C(=O)N[C@H](C)COCc1cc(c3c(c1)ncn3C)N2 [US20250213571, Compound 8], the Kd is reported as less than 0.01 µM.
